From patent US7153873B2, “Salts of bicyclic, N-acylated imidazo-3-amines and imidazo-5-amines” (Gruenenthal GmbH, priority 2000, dated 2006) come the findings set out here.

The test concerns the target T1, μ-opiate receptor (Rattus norvegicus, UniProt P33535).
T1 construct: homogenate of rat brain without cerebellum, pons and medulla oblongata of male Wistar rats; from tissue; host or cells: rat brain (without cerebellum, pons and medulla oblongata), male Wistar rats, membrane homogenate
The test is described as follows: μ-Opiate receptor binding investigations on rat brain membrane homogenates with tritiated naloxone. To be noted: 10 μM compound; rat brain membrane homogenate (male Wistar rats); 1 nmol/l tritiated naloxone as radioactive ligand; read-out: μ-affinity % inhibition 10 μM. The procedure: μ-Opiate Receptor Binding Investigations
Investigations to determine the affinity of the compounds of Formula I according to the invention for the μ-opiate receptor were carried out on brain membrane homogenates (homogenate of rat brain without cerebellum, pons and medulla oblongata of male Wistar rats).
For this purpose, the respective freshly prepared rat brain was homogenized in 50 mmol/l tris-HCl (pH 7.4) with ice cooling and was centrifuged for 10 minutes at 5,000 g and 4° C. After decanting and rejection of the supernatant, retrieval and homogenisation of the membrane sediment in 50 mmol/l tris-HCl (pH 7.4), the homogenate was then centrifuged for 20 minutes at 20,000 g and 4° C. This washing stage was repeated several times. The supernatant was then decanted and the membrane sediment homogenized in cold 50 mmol/l tris-HCl, 20% glycerol (w/v), 0.01% Bactitracin (w/v) (pH 7.4) and frozen in aliquots until testing. To test receptor binding, the aliquots were thawed and diluted 1:10 with the binding test buffer.
In the binding test, a 50 mmol/l tris-HCl, 5 mmol/l MgCl (pH 7.4) was used as buffer and 1 nmol/l tritiated naloxone as radioactive ligand.

T1 sequence (P33535 whole entry): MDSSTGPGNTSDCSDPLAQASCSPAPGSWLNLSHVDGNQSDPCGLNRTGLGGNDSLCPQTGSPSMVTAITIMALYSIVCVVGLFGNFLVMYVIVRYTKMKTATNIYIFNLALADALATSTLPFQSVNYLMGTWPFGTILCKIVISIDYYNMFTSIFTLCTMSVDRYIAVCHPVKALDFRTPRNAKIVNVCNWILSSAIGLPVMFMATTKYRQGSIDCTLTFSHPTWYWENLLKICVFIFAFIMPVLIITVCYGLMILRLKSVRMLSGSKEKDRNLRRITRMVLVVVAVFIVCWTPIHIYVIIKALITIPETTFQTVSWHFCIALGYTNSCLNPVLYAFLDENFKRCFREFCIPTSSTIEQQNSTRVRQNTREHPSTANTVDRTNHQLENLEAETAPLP

Regarding `CC(=O)[n+]1c(C)c(NC2CCCCC2)n2cccc(OCc3ccccc3)c21` [Example 7, 1-acetyl-8-benzyloxy-3-cyclohexylamino-2-methyl-imidazo[1,2-a]pyridin-1-ium chloride], the inhibition at 10 µM stood at 91%.
The figure for `CC(=O)[n+]1c(-c2ccccc2)c(NC2CCCCC2)n2cccnc21` [Example 6, 1-acetyl-3-cyclohexylamino-2-phenyl-imidazo[1,2-a]-pyrimidin-1-ium chloride] is 53%.
The figure for `CC(=O)[n+]1c(-c2ccccc2)c(NC(C)(C)C)n2ccsc21` [Example 4, 7-acetyl-5-tert-butylamino-6-phenyl-imidazo[2,1-b]-thiazol-7-ium chloride] is 90%; for `CC(=O)[n+]1c(-c2ccccc2)c(NC2CCCCC2)n2c3ccccc3ccc21` [Example 5, 3-acetyl-1-cyclohexylamino-2-phenyl-imidazo[1,2-a]-quinolin-3-ium chloride] it is 79%.
The figure for `CC(=O)[n+]1c(C)c(NC(C)(C)C)n2cccc(OCc3ccccc3)c21` [Example 8, 1-acetyl-8-benzyloxy-3-tert-butylamino-2-methyl-imidazo[1,2-a]pyridin-1-ium chloride] is 98%.

Broadly, the inhibition is the share of the control response that was lost under treatment.
